These results are taken from patent publication US12059422B2 (MEI Pharma, Inc., priority 2011, dated 2024).

A word on the IC50: it is the midpoint of a concentration-inhibition curve.

Test [1] addresses T1, PI3K delta (Homo sapiens, UniProt O00329).
T1 construct: purchased Millipore, Billerica, MA, USA
Description: Luciferase-based luminescence assay (KinaseGlo), PI3K delta enzymatic activity. The format is biochemical. An outline of the steps:
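KinaseGlo luminescence measured ATP remaining after PIP2 (50 μM) phosphorylation with 25 μM ATP in HEPES pH 7.5 buffer with CHAPS and DTT. Final enzyme was 1.65 nM alpha (1 h reaction) or 6.86 nM delta (2 h reaction). IC50 was curve-fitted from 10 concentrations.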
(Kinase-Glo reads ATP consumption through a luciferase reaction.)

For test [2], the target named is T2, PI3Kδ (Homo sapiens, UniProt O00329).
T2 construct: endogenous in cells; host or cells: Raji (ATCC #CCL-86)
T2 sequence (O00329 whole entry): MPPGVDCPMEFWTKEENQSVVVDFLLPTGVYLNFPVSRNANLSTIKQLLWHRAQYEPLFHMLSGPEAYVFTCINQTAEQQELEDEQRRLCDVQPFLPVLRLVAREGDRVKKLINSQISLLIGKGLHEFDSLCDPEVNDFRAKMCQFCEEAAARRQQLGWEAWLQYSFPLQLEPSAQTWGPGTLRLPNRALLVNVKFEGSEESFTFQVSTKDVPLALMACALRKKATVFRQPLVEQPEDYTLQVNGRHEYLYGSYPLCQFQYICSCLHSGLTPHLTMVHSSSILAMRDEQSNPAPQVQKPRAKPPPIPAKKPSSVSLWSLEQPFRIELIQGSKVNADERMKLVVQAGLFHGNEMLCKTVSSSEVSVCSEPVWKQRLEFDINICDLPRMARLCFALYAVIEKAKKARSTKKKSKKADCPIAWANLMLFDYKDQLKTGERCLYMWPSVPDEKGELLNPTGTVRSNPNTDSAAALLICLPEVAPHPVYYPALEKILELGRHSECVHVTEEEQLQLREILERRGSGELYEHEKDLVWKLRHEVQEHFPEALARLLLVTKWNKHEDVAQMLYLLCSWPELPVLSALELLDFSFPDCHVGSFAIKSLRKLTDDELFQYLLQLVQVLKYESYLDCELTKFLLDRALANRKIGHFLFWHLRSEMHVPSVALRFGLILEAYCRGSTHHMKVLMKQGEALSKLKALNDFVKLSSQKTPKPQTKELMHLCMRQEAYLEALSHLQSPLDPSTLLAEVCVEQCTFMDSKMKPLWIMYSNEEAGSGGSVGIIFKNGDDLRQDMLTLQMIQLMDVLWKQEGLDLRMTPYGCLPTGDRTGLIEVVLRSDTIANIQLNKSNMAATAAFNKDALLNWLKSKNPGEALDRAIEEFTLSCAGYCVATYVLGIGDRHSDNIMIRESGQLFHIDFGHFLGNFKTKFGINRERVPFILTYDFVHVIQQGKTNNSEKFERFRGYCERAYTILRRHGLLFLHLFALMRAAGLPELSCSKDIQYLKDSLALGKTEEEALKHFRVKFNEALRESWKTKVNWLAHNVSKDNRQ
T2 sequence (P27986 whole entry partner): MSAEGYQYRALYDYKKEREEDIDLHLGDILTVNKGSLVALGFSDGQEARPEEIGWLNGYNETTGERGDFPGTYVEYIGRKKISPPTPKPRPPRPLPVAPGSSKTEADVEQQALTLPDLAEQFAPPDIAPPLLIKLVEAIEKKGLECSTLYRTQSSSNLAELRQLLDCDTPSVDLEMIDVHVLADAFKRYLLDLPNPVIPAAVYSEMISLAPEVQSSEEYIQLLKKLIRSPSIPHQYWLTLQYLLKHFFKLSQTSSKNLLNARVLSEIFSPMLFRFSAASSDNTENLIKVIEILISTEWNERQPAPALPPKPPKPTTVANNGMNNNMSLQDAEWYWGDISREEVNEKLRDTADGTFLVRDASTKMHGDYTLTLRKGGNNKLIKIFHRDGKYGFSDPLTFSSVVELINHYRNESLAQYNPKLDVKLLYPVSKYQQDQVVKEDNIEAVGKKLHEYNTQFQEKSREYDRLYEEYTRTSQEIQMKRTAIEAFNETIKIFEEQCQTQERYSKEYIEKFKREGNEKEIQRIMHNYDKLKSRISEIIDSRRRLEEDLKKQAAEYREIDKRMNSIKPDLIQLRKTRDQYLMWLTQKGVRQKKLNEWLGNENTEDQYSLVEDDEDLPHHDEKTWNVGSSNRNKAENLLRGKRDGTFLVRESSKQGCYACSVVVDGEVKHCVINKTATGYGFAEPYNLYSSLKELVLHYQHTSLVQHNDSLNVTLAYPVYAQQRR
The experiment in a line: ELISA assay for PI3Kδ: sandwich ELISA, phosphorylation of AKT (Thr308) in Raji cells. The format is cell-based. The procedure, abridged: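 Raji cells, serum-starved 2 hrs, treated with compound (10 concentrations) for 2 hrs at 37° C, then stimulated 30 min with anti-human IgM. Lysates analysed by sandwich ELISA for pAKT Thr308 and total AKT with luminescent read-out. IC50 from curve fitting.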
For orientation: In an ELISA, binding on a coated surface is turned into a signal by an enzyme label.

[3] abbreviates: ratio of enzymatic IC50 values, Table 1.
[4] abbreviates: ratio of cellular IC50 values, Table 2.

Molecules are shown by their SMILES. Where only a bound is given, the exact number is not on record here.

T1 sequence (O00329 whole entry, species assumed): as the sequence (O00329 whole entry) above
T1 sequence (P27986 whole entry partner, species assumed): as the sequence (P27986 whole entry partner) above

Regarding `CN(C)CCCc1ccccc1CC(C)(C)Nc1nc(N2CCOCC2)nc(-n2c(C(F)F)nc3ccccc32)n1` [Compound A76, 4-(2-(difluoromethyl)-1H-benzo[d]imidazol-1-yl)-N-(1-(2-(3-(dimethylamino)propyl)phenyl)-2-methylpropan-2-yl)-6-morpholino-1,3,5-triazin-2-amine], the IC50 was at most 100 nM in test [1] (inhibition of enzymatic activity, KinaseGlo, 25 μM ATP, read-out: IC50 p110δ) and at most 100 nM in test [2] (cellular, pAKT (Thr308), Raji cells, anti-Human IgM stimulation, read-out: IC50 p110δ). The α/δ ratio result in test [1] (ratio of enzymatic IC50 against PI3Kα over IC50 against PI3Kδ) and in test [2] (setting [4]) was “A’” in each case. In addition, the β/δ ratio entry in test [1] (setting [3]) and in test [2] (setting [4]) was “A’” in each case. For the same compound, the γ/δ ratio result in test [1] (setting [3]) and in test [2] (setting [4]) was “A’” in each case.
